# Entries after “also recorded” stand apart in the source; their conditions may differ.
# Assays:
# Drosophila melanogaster = assay: Two-choice feeding assay (food preference); type: in vivo; conditions: for food choice: 200 mM L-glucose+phlorizin versus 50 mM D-glucose+phlorizin: 18 hours food deprivation (FIG. 4); for food choice: glucose mixed with phlorizin versus plain agar: 100 mM glucose
# Protocol: Feeding assays were performed as previously described^6 using 50 flies per two-choice arena. Briefly, ˜50 4-8 days old male flies were starved in an empty vial with wet Kim wipe for 5 or 18 hours, and then given a choice between two sugars, or a sugar and plain agar for 2 hours. Food preference was determined as percent preference index (PI %) by scoring the abdomen color of each fly: % PI=(#eaten food1+0.5×#eaten both)−(#eaten food2+0.5×#eaten both)]/(total #flies eaten) All sugars, except for L-glucose (Carbosynth), were from Sigma. For FIG. 1c, 10 mM phlorizin (Sigma) was added to warm agar with or without sugar. For the experiments in the dark, individual plates were wrapped in aluminum foil and then placed in a dark drawer while tested flies were making a choice between the two substrates. For the neural silencing experiments, flies bearing UAS-Kir2.1, Ptubulin-GAL80^ts, and a GAL4 driver were treated as described^17. These flies were raised at 18° C., incubated at 29° C. for 40 hours, starved at 29° C. for next 18 hrs and then tested in the two-choice assay at room temperature. For a negative control, the flies were raised and starved at 18° C., and tested at room temperature. Because metabolism is slower at 18° C. than at 25-29° C., the flies at 18° C. needed to be starved for a longer period. Thus, we determined that the 18 hours of starvation at 25-29° C. is equivalent to the 50-60 hours of starvation at 18° C. Also, see FIG. 11.
# hemolymph glycemia = assay: Prandial rise of hemolymph glycemia after glucose feeding with or without phlorizin; type: in vivo, Drosophila melanogaster; conditions: 18-hour starved flies fed 100 mM glucose with 10 mM phlorizin for 20 minutes (FIG. 1b)
# Protocol: Glycogen and glycemia were measured as previously described^6. For the prandial rise of hemolymph glycemia, flies were starved for 18 hours, and then fed with 100 mM glucose (with or without 10 mM phlorizin) for 15-20 minutes. Their hemolymph was immediately collected and measured.
structure (smiles),measurement,setting,value
O=C(CCc1ccc(O)cc1)c1c(O)cc(O)cc1O[C@@H]1O[C@H](CO)[C@@H](O)[C@H](O)[C@H]1O [Phlorizin],food choice: 200 mM L-glucose+phlorizin versus 50 mM D-glucose+phlorizin,Drosophila melanogaster; control flies,chose the more concentrated (sweeter) L-glucose; also recorded: chose the sweeter L-glucose
same,food choice: glucose mixed with phlorizin versus plain agar,"Drosophila melanogaster; control poxnΔM22-B5;SuperA158, 18 h food deprived, 10 mM phlorizin (FIG. 1c)",can distinguish glucose mixed with phlorizin from agar
same,food choice: 200 mM L-glucose+phlorizin versus 50 mM D-glucose+phlorizin,Drosophila melanogaster; taste-blind (poxnΔM22-B5) and sugar-blind (Gr5a;Gr64a) mutants,failed to discriminate between Lglucose+phlorizin and D-glucose+phlorizin; also recorded: showed equal preference for these two enantiomers
same,food choice: fructose mixed with phlorizin versus plain agar,"Drosophila melanogaster; taste-blind poxnΔM22-B5, 18 h food deprived, 100 mM fructose, 10 mM phlorizin (FIG. 1c)",able to detect the nutritional value of fructose mixed with phlorizin
same,food choice: glucose mixed with phlorizin versus plain agar,"Drosophila melanogaster; taste-blind poxnΔM22-B5, 18 h food deprived, 10 mM phlorizin (FIG. 1c)",failed to consume glucose mixed with phlorizin
same,prandial rise in hemolymph glycemia,hemolymph glycemia,preventing a prandial rise in glycemia
